Laboratory results as given in patent US20120065126A1, “Pharmaceutical Compositions Containing Antifungal Peptides” (BASF SE, priority 2009, published 2012).

What was measured:
[1] = system: Malassezia furfur (DSM 6170); type: cell-based; conditions: DSM 6170, 72 h
Protocol: Minimum inhibitory concentration of peptide P18 (P18 sequence H-KWKLFKKIPKFLHLAKKF-NH2 (Bachem AG, Switzerland)) based on Malassezia furfur (DSM 6170)
Growth medium M472 Pityrosporum medium according to DSMZ:
40 g of malt extract (Becton, Dickinson and Company, Sparks, USA) 20 g of ox bile (Merck, Darmstadt, Germany)
A shake culture containing M472 Pityrosporum medium was inoculated with M. furfur and incubated with shaking at 30° C. and 200 rpm overnight.
The suspension was adjusted to an optical density measured at 600 nm of 0.1. A 96-well microtiter plate was filled with 95 μl per well of the M. furfur suspension. Then a dilution series of the peptide with a final concentration in the wells between 0 and 1000 ppm was added. To this end, 5 μl per well of peptide solution with a concentration in the range from 0 ppm to 20 000 ppm were added to the M. furfur suspension, such that final concentrations of the peptide in the wells in the range between 0 ppm and 1000 ppm were obtained.
The microtiter plate was incubated at 30° C., 600 rpm. The fungal growth was assessed by measuring the optical density at 620 nm and observed over 72 hours. The experiments were conducted at least in double determination and independently repeated at least once.

[2] = system: E. coli (Stratagene, BLR); experiment: P18 in pharmaceutical base formulation (CFU); type: cell-based, Escherichia coli; conditions: mixed 1:9 with suspension
Protocol: The aim of the experiment was to study the effect of a pharmaceutical base formulation containing the P18 peptide ingredient (P18 sequence H-KWKLFKKIPKFLHLAKKF-NH2 (Bachem AG, Switzerland)). For this purpose, the following base formulation was used: […]
(§1) 1% hydroxycellulose 10% propylene glycol made up with water.
Based on the base formulation, formulations with rising P18 concentrations (500 ppm to 10 000 ppm) were prepared from a 20% concentrate solution.
The effect of the formulations on E. coli (Stratagene, BLR) was studied.
LB growth medium (Becton, Dickinson and Company, Sparks, USA) […] make up to 1 liter, set pH 7
The growth test was effected as follows: 5 ml of LB medium were inoculated with E. coli and incubated at 37° C. and 200 rpm overnight.
1.5 ml reaction vessels were each filled with 1 ml of LB medium and inoculated with the E. coli suspension from the overnight culture such that an optical density, measured at 600 nm, of 0.1 was obtained at the start of the experiment. The resulting E. coli suspension was mixed in a ratio of 1:9 (formulation: E. coli suspension) with the formulations. 1 μl of the culture was diluted with 20 μl of LB medium after 5 minutes, 10 minutes, 20 minutes and 60 minutes, and then plated out. After incubation over 24 hours, the colonies on the plates were counted.

[3] = system: S. epidermidis (DSM 1798); experiment: P18 in pharmaceutical base formulation (CFU); type: cell-based, Staphylococcus epidermidis; conditions: 10 000 ppm in the formulation, mixed 1:9 with suspension
Protocol: (§2) The aim of the experiment was to study the effect of a pharmaceutical base formulation containing the P18 peptide ingredient (P18 sequence H-KWKLFKKIPKFLHLAKKF-NH2 (Bachem AG, Switzerland)) on further fungi and bacteria. For this purpose, the following base formulation was used: […]
as §1
(§3) Based on the base formulation, formulations containing 10 000 ppm of P18 peptide were prepared from a 20% concentrate solution.
(§4) The effect of the formulations on S. epidermidis (DSM 1798), M. furfur (DSM 6170) and T. rubrum (DSM 21146) was studied.
TSBY growth medium for S. epidermidis Ready-made TSB medium (Becton, Dickinson and Company, Sparks, USA) 17 g of pancreatin-degraded casein 3 g of pancreatin-degraded soya 2.5 g of dextrose 5 g of sodium chloride 2.5 g of dipotassium phosphate 3 g of yeast extract (Becton, Dickinson and Company, Sparks, USA) make up to 1 liter, set pH 7 […]
(§5) 1.5 ml reaction vessels were each filled with 1 ml of medium and inoculated with the fungal or bacterial suspension from the overnight culture such that the resulting suspensions at the start of the experiment had been adjusted to an optical density, measured at 600 nm, of 0.1. […] After incubation over 24 hours, the colonies on the plates were counted.

[4] = system: T. rubrum (DSM 21146); experiment: P18 in pharmaceutical base formulation (CFU); type: cell-based, Trichophyton rubrum; conditions: 10 000 ppm in the formulation, mixed 1:9 with suspension
Protocol: as §2, §1, §3, §4
MEP growth medium according to DSMZ for T. rubrum 30 g of malt extract (Becton, Dickinson and Company, Sparks, USA) 3 g of soya peptone (Becton, Dickinson and Company, Sparks, USA) make up to 1 liter, set pH 5.6.
For T. rubrum, an agar plate on which it had grown was rinsed with 5 ml of medium. 10 μl of the resulting suspension were added to 1 ml of MEP medium and used directly in the experiment.
as §5

[5] = system: M. furfur (DSM 6170); experiment: P18 in pharmaceutical base formulation (CFU); type: cell-based, Malassezia furfur; conditions: for Colony forming units after the incubation time specified: 10 000 ppm in the formulation, mixed 1:9 with suspension
Protocol: as §2, §1, §3, §4
M472 growth medium according to DSMZ for M. furfur 40 g of malt extract (Becton, Dickinson and Company, Sparks, USA) 20 g of ox bile (Merck, Darmstadt, Germany)
For M. furfur, 5 ml of medium were inoculated with the microorganism and incubated at 30° C. and 200 rpm overnight.
1.5 ml reaction vessels were each filled with 1 ml of medium and inoculated with the fungal or bacterial suspension from the overnight culture such that the resulting suspensions at the start of the experiment had been adjusted to an optical density, measured at 600 nm, of 0.1. The resulting suspension was mixed with the formulations in a ratio of 1:9 (formulation: microbial suspension). 1 μl of the culture was diluted with 20 μl of medium after 5 minutes and 60 minutes and then plated out. After incubation over 24 hours, the colonies on the plates were counted.

Substance: H-KWKLFKKIPKFLHLAKKF-NH2 [P18, H-KWKLFKKIPKFLHLAKKF-NH2]
- Minimum inhibitory concentration [1]: 125 ppm
- Colony forming units after the incubation time specified ([2]; 10 000 ppm in the formulation, 5 minutes): 1778 ± 314 CFU
- Colony forming units after the incubation time specified ([2]; 10 000 ppm in the formulation, 10 minutes): 901 ± 120 CFU
- Colony forming units after the incubation time specified ([2]; 10 000 ppm in the formulation, 20 minutes): 226 ± 286 CFU
- Colony forming units after the incubation time specified ([2]; 10 000 ppm in the formulation, 60 minutes): 7.75 ± 9.5 CFU
- Colony forming units after the incubation time specified ([2]; 500 ppm in the formulation, 5 minutes): 2000 ± 0 CFU
- Colony forming units after the incubation time specified ([2]; 500 ppm in the formulation, 10 minutes): 2000 ± 0 CFU
- Colony forming units after the incubation time specified ([2]; 500 ppm in the formulation, 20 minutes): 2000 ± 0 CFU
- Colony forming units after the incubation time specified ([2]; 500 ppm in the formulation, 60 minutes): 709 ± 451 CFU
- Colony forming units after the incubation time specified ([2]; 1000 ppm in the formulation, 5 minutes): 2000 ± 0 CFU
- Colony forming units after the incubation time specified ([2]; 1000 ppm in the formulation, 10 minutes): 2000 ± 0 CFU
- Colony forming units after the incubation time specified ([2]; 1000 ppm in the formulation, 20 minutes): 1619 ± 534 CFU
- Colony forming units after the incubation time specified ([2]; 1000 ppm in the formulation, 60 minutes): 332 ± 236 CFU
- Colony forming units after the incubation time specified ([2]; 2000 ppm in the formulation, 5 minutes): 2000 ± 0 CFU
- Colony forming units after the incubation time specified ([2]; 2000 ppm in the formulation, 10 minutes): 2000 ± 0 CFU
- Colony forming units after the incubation time specified ([2]; 2000 ppm in the formulation, 20 minutes): 733 ± 349 CFU
- Colony forming units after the incubation time specified ([2]; 2000 ppm in the formulation, 60 minutes): 93 ± 127 CFU
- Colony forming units after the incubation time specified ([2]; 5000 ppm in the formulation, 5 minutes): 2000 ± 0 CFU
- Colony forming units after the incubation time specified ([2]; 5000 ppm in the formulation, 10 minutes): 1225 ± 339 CFU
- Colony forming units after the incubation time specified ([2]; 5000 ppm in the formulation, 20 minutes): 411 ± 516 CFU
- Colony forming units after the incubation time specified ([2]; 5000 ppm in the formulation, 60 minutes): 29 ± 36 CFU
- Colony forming units after the incubation time specified ([3]; 5 minutes): 790 ± 393 CFU
- Colony forming units after the incubation time specified ([3]; 60 minutes): 513 ± 20 CFU
- Colony forming units after the incubation time specified ([4]; 5 minutes): 25 ± 8 CFU
- Colony forming units after the incubation time specified ([4]; 60 minutes): 6 ± 1 CFU
- Colony forming units after the incubation time specified ([5]; 5 minutes): 671 ± 13 CFU
- Colony forming units after the incubation time specified ([5]; 60 minutes): 2 ± 2 CFU
- Reduction in the cell count ([5]; treatment with a formulation which comprised P18, highest reduction of Example 22): > 300 fold
